Measured values from PMC2978510 (Bioorganic & medicinal chemistry, 2010).

Assays:
[1] = mouse; ref [28]; cited from earlier work
[2] = target: T1, CB2 receptor (Homo sapiens, UniProt P34972); experiment: GTPγS binding in CHO cells stably expressing the human CB2 receptor; format: biochemical; details: for Efficacy at the CB2 receptor: GTPγS binding, relative to CP-55,940
[3] = target: T1, CB2 receptor; details: ref [31], cited from earlier work
[4] = target: CB2 receptor; details: cited from earlier work; for Ki: read-out: Affinity for the CB2 receptor, Merck Frosst group, ref [29]
[5] = system: CB1 receptor; details: Merck Frosst group; ref [29]; cited from earlier work
[6] = target: CB1 receptor (Rattus norvegicus, UniProt P20272); details: read-out: Ki (nM) CB1; mean ± SEM; ref [31]; cited from earlier work
Chain of CB1 receptor (Rattus norvegicus, UniProt P20272) (P20272 whole entry): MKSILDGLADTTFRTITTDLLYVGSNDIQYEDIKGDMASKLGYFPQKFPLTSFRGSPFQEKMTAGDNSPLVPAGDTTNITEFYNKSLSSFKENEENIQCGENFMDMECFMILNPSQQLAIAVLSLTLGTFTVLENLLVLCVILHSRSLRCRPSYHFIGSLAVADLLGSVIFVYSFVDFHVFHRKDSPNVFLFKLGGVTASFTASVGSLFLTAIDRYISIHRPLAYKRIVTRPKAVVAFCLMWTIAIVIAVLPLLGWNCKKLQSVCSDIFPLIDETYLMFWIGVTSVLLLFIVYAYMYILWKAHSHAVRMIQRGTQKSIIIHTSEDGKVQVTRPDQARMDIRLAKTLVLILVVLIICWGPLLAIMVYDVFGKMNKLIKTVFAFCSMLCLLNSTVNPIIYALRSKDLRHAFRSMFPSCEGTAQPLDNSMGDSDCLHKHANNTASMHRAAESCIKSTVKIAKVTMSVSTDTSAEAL

T1 sequence (P34972 whole entry): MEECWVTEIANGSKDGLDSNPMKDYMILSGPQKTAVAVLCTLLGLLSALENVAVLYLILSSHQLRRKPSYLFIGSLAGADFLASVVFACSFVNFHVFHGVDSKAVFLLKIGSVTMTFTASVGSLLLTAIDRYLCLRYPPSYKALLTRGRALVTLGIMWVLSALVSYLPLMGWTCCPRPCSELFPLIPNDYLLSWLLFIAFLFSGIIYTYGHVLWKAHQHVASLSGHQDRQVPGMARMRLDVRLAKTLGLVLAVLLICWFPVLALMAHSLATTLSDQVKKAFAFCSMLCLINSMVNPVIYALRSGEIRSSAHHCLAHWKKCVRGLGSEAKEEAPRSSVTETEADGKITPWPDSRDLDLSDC

CCCCCCC(C)(C)c1ccc2c(c1)OC(C)(C)[C@@H]1CC=C(CO)C[C@@H]21 [Compound 2, 11-hydroxy-3-(1′,1′-dimethylheptyl)-1-deoxy-Δ^8-THC]
Potency in vivo [1]: potent cannabinoid in vivo in the mouse

CCCCCCC(C)(C)c1cc(Br)c2c(c1)OC(C)(C)[C@@H]1CC=C(C)C[C@@H]21 [JWH-383, 1-Bromo-1-deoxy-3-(1′,1′-dimethylheptyl)-Δ^8-tetrahydrocannabinol]
Efficacy at the CB2 receptor [2]: full agonists

CCCCCCC(C)(C)c1cc(OC)c2c(c1)OC(C)(C)C1CC=C(C)CC21 (stereo not shown) [JWH-143]
Selectivity for the CB2 receptor ([3]; 1-methoxy series): 12 fold

CCCCCC(C)(C)c1cc(Br)c2c(c1)OC(C)(C)[C@@H]1CC=C(C)C[C@@H]21 [JWH-393, 1-Bromo-1-deoxy-3-(1′,1′-dimethylhexyl)-Δ^8-tetrahydrocannabinol]
Efficacy at the CB2 receptor [2]: full agonists
Emax ([2]; read-out: Emax (% CP-55940), percent relative to 3 μM CP-55,940, mean ± SEM): 98.3 ± 6.8%

CCCCCCC(C)(C)c1cc(OC)c2c(c1)OC(C)(C)C1CC=C(C)CC21 (stereo not shown) [Compound 4, 1-methoxy-Δ^8-THC-DMH]
Ki [4]: ~20 nM
Affinity for the CB1 receptor [5]: negligible affinity

CCCCCCC(C)(C)c1ccc2c(c1)OC(C)(C)[C@@H]1CC=C(C)C[C@@H]21 [Compound 3, 3-(1′,1′-dimethylheptyl)-1-deoxy-Δ^8-THC]
Selectivity for the CB2 receptor ([4]; ref [28]): nearly ten-fold selectivity
Potency in vivo [1]: potent in vivo

CCCC(C)(C)c1cc(OC)c2c(c1)OC(C)(C)[C@@H]1CC=C(C)C[C@@H]21 [JWH-214]
Ki [6]: > 10000 nM
Ki ([3]; read-out: Ki (nM) CB2, mean ± SEM): 325 ± 70 nM

C=C1CCC2C(C1)c1c(OC)cc(C(C)(C)CCCCCC)cc1OC2(C)C (stereo not shown) [Compound 5, 1-methoxy-Δ^9(11)-THC-DMH]
Ki [4]: ~20 nM
Affinity for the CB1 receptor [5]: negligible affinity
